Biological target: T1, Mouse CatSper1 currents (Mus musculus, UniProt Q91ZR5)
T1 construct: Spermatozoa from corpus epididymis were used because the CD of such cells was less fragile; from tissue; host or cells: mouse spermatozoa from corpus epididymis
Experiment: Inhibition of mouse CatSper1 currents in electrophysiological recordings
Format: cell-based
Method: Compound (II) was tested for its effects on sperm hyperactivation using a single-sperm motility assay as described in Kirichok Y, Navarro B, Clapham D E. “Whole-cell patch-clamp measurements of spermatozoa reveal an alkaline-activated Ca2+ channel”. Nature. 2006; 439(7077):737-40. Mouse sperm was prepared as described in Kirichok.
The patch pipette was applied to the sperm cell cytoplasmic droplet (CD). Spermatozoa from corpus epididymis were used because the CD of such cells was less fragile. The most mature spermatozoa, those with the CD located next to the principal piece, were chosen for experiments. Pipette resistance with Cs-Methanesulfonate-based solutions was 6-13 MΩ. Access resistance in the whole-cell configuration was 25-120 MS). The pipette solution (in mM) was as follows: 140 Cs-Methanesulfonate, 5 NaCl, 10 HEPES, 10 EGTA, pH 7.2 (pH adjusted with CsOH).
Seals between the patch pipette and the cytoplasmic droplet were formed in HS bath solution (Kirichok Y, Navarro B, Clapham D E. Whole-cell patch-clamp measurements of spermatozoa reveal an alkaline-activated Ca2+ channel. Nature. 2006 Feb. 9; 439(7077):737-40). After break-in, the bath solution was changed to recording solution: 150 NaGluconate, 10 HEPES, 2Na3HEDTA and 2 EGTA, pH 7.4 (pH adjusted with NaOH). CaCl2 was added to the solution in accordance with the WinMAXC v2.05 program (C. Patton, Stanford University) to yield ˜[…] free [Ca2+].
A 20 micromolar solution of compound (II), i.e. 3,4-bis(2-thienylcarbonyl)-1,2,5-oxadiazole-2-ium-2-olate, was prepared from a 100 mM DMSO stock in the recording solution described above. Osmolarity of the solutions was approximately 303 mmol kg-1.
The membrane potential was held at 0 mV. Every 5 seconds CatSper currents were monitored by application of a voltage ramp from −100 mV to +100 mV over the course of 400 milliseconds. Following break-in, cells were monitored until a steady state level of CatSper current (plotted at +80 mV) was observed. […] Steady state block was monitored for 5-6 sweeps. […] Series resistance was monitored throughout the recordings.

O=C(c1cccs1)c1no[n+]([O-])c1C(=O)c1cccs1 [Compound (II), 3,4-bis(2-thienylcarbonyl)-1,2,5-oxadiazole-2-ium-2-olate]
block of CatSper current (20 micromolar, current plotted at +80 mV, mouse spermatozoa from corpus epididymis): steady state block was achieved
sweeps until steady state block (20 micromolar, voltage ramp every 5 seconds): 2-3 sweeps
CatSper current following removal of the compound (washout after 20 micromolar): returned rapidly to unblocked levels

Reference: patent publication US9732050B2, “Modulators of sperm hypermotility and uses thereof” (HYDRA BIOSCIENCES, INC., priority 2005, dated 2017)
